Reference: ChEMBL document CHEMBL1201861, “Genomics of Drug Sensitity in Cancer screening data, Wellcome Trust Sanger Institute”

Experiments:
Test in all cases: cells
[1] = tested on: NCI-H2126; type: functional, cell-based, Homo sapiens; settings: Homo sapiens, NCI-H2126;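 also: growth inhibition of the cancer cell line, determined with a cell viability readout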
Description: SANGER: Inhibition of human NCI-H2126 cell growth in a cell viability assay.

[2] = tested on: NH-12; type: functional, cell-based, Homo sapiens; settings: Homo sapiens, NH-12;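 also: growth inhibition of NH-12 cells, read out with a cell viability assay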
Description: SANGER: Inhibition of human NH-12 cell growth in a cell viability assay.

[3] = tested on: MHH-NB-11; type: functional, cell-based, Homo sapiens; settings: Homo sapiens, MHH-NB-11;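 also: growth inhibition of human MHH-NB-11 cells, read out by a cell viability assay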
Description: SANGER: Inhibition of human MHH-NB-11 cell growth in a cell viability assay.

[4] = tested on: QIMR-WIL; type: functional, cell-based, Homo sapiens; settings: Homo sapiens, QIMR-WIL;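 also: growth inhibition of QIMR-WIL cells, read out with a cell viability assay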
Description: SANGER: Inhibition of human QIMR-WIL cell growth in a cell viability assay.

[5] = tested on: KARPAS-299; type: functional, cell-based, Homo sapiens; settings: Homo sapiens, KARPAS-299
Description: SANGER: Inhibition of human KARPAS-299 cell growth in a cell viability assay.

[6] = tested on: SK-MEL-1; type: functional, cell-based, Homo sapiens; settings: Homo sapiens, SK-MEL-1;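 also: growth inhibition of human SK-MEL-1 cells, read out by a cell viability assay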
Description: SANGER: Inhibition of human SK-MEL-1 cell growth in a cell viability assay.

[7] = tested on: BB49-HNC; type: functional, cell-based, Homo sapiens; settings: Homo sapiens, BB49-HNC;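 also: cell viability assay read-out, reported as inhibition of BB49-HNC cell growth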
Description: SANGER: Inhibition of human BB49-HNC cell growth in a cell viability assay.

[8] = tested on: CTB-1; type: functional, cell-based, Homo sapiens; settings: Homo sapiens, CTB-1
Description: SANGER: Inhibition of human CTB-1 cell growth in a cell viability assay.

[9] = tested on: MN-60; type: functional, cell-based, Homo sapiens; settings: Homo sapiens, MN-60;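 also: growth inhibition of the MN-60 cell line, determined with a cell viability assay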
Description: SANGER: Inhibition of human MN-60 cell growth in a cell viability assay.

[10] = tested on: NCI-N87; type: functional, cell-based, Homo sapiens; settings: Homo sapiens, NCI-N87;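 also: growth inhibition of human NCI-N87 cells, read out with a cell viability assay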
Description: SANGER: Inhibition of human NCI-N87 cell growth in a cell viability assay.

[11] = tested on: U-87 MG; type: functional, cell-based, Homo sapiens, U-87MG ATCC; settings: Homo sapiens, U-87 MG;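 also: growth inhibition of the cells measured with a viability assay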
Description: SANGER: Inhibition of human U-87-MG cell growth in a cell viability assay.

[12] = tested on: NOMO-1; type: functional, cell-based, Homo sapiens; settings: Homo sapiens, NOMO-1;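 also: growth inhibition of human NOMO-1 cells measured by a cell viability assay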
Description: SANGER: Inhibition of human NOMO-1 cell growth in a cell viability assay.

[13] = tested on: MEG-01; type: functional, cell-based, Homo sapiens; settings: Homo sapiens, MEG-01;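 also: growth inhibition of MEG-01 cells, read out by a cell viability assay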
Description: SANGER: Inhibition of human MEG-01 cell growth in a cell viability assay.

[14] = tested on: TE-5; type: functional, cell-based, Homo sapiens; settings: Homo sapiens, TE-5;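 also: inhibition of cell growth, read out by a cell viability assay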
Description: SANGER: Inhibition of human TE-5 cell growth in a cell viability assay.

[15] = tested on: COLO-824; type: functional, cell-based, Homo sapiens; settings: Homo sapiens, COLO-824
Description: SANGER: Inhibition of human COLO-824 cell growth in a cell viability assay.

[16] = tested on: A704; type: functional, cell-based, Homo sapiens; settings: Homo sapiens, A704;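 also: growth inhibition of human A704 cells, read out with a cell viability assay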
Description: SANGER: Inhibition of human A704 cell growth in a cell viability assay.

[17] = tested on: COR-L88; type: functional, cell-based, Homo sapiens; settings: Homo sapiens, COR-L88;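 also: growth inhibition of COR-L88 cells, read out with a cell viability assay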
Description: SANGER: Inhibition of human COR-L88 cell growth in a cell viability assay.

[18] = tested on: KARPAS-45; type: functional, cell-based, Homo sapiens; settings: Homo sapiens, KARPAS-45;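 also: inhibition of cell line growth, read out through a viability assay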
Description: SANGER: Inhibition of human KARPAS-45 cell growth in a cell viability assay.

[19] = tested on: EW-11; type: functional, cell-based, Homo sapiens; settings: Homo sapiens, EW-11;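 also: growth inhibition of human EW-11 cells, measured with a cell viability assay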
Description: SANGER: Inhibition of human EW-11 cell growth in a cell viability assay.

[20] = tested on: DMS-114; type: functional, cell-based, Homo sapiens; settings: Homo sapiens, DMS-114
[21] = tested on: BT-474; type: functional, cell-based, Homo sapiens; settings: Homo sapiens, BT-474
Description: SANGER: Inhibition of human BT-474 cell growth in a cell viability assay.

[22] = tested on: HOP-62; type: functional, cell-based, Homo sapiens; settings: Homo sapiens, HOP-62;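 also: cell growth inhibition determined with a viability assay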
Description: SANGER: Inhibition of human HOP-62 cell growth in a cell viability assay.

[23] = tested on: NCI-H1355; type: functional, cell-based, Homo sapiens; settings: Homo sapiens, NCI-H1355;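 also: growth inhibition of human NCI-H1355 cells, read out by a cell viability assay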
Description: SANGER: Inhibition of human NCI-H1355 cell growth in a cell viability assay.

[24] = tested on: BB65-RCC; type: functional, cell-based, Homo sapiens; settings: Homo sapiens, BB65-RCC;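 also: growth inhibition of the cell line, measured with a cell viability assay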
Description: SANGER: Inhibition of human BB65-RCC cell growth in a cell viability assay.

[25] = tested on: LAMA-84; type: functional, cell-based, Homo sapiens; settings: Homo sapiens, LAMA-84;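 also: growth inhibition of LAMA-84 cells, read out with a cell viability assay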
Description: SANGER: Inhibition of human LAMA-84 cell growth in a cell viability assay.

[26] = tested on: NCI-H747; type: functional, cell-based, Homo sapiens; settings: Homo sapiens, NCI-H747;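 also: growth inhibition of human NCI-H747 cells, read out by a cell viability assay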
Description: SANGER: Inhibition of human NCI-H747 cell growth in a cell viability assay.

[27] = tested on: SBC-1; type: functional, cell-based, Homo sapiens; settings: Homo sapiens, SBC-1;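 also: cell viability assay measuring growth inhibition of the SBC-1 cell line, IC50 being the concentration that halves growth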
Description: SANGER: Inhibition of human SBC-1 cell growth in a cell viability assay.

[28] = tested on: NCI-H1395; type: functional, cell-based, Homo sapiens; settings: Homo sapiens, NCI-H1395;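 also: cell viability assay read-out quantifying reduced proliferation of human NCI-H1395 cells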
Description: SANGER: Inhibition of human NCI-H1395 cell growth in a cell viability assay.

[29] = tested on: SK-PN-DW; type: functional, cell-based, Homo sapiens; settings: Homo sapiens, SK-PN-DW;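 also: growth inhibition measured with a viability assay on these cells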
Description: SANGER: Inhibition of human SK-PN-DW cell growth in a cell viability assay.

[30] = tested on: TE-12; type: functional, cell-based, Homo sapiens; settings: Homo sapiens, TE-12;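 also: growth inhibition of TE-12 cells, read out by a cell viability assay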
Description: SANGER: Inhibition of human TE-12 cell growth in a cell viability assay.

[31] = tested on: VA-ES-BJ; type: functional, cell-based, Homo sapiens; settings: Homo sapiens, VA-ES-BJ;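 also: growth inhibition of the VA-ES-BJ cell line, read out by a cell viability assay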
Description: SANGER: Inhibition of human VA-ES-BJ cell growth in a cell viability assay.

[32] = tested on: SK-N-FI; type: functional, cell-based, Homo sapiens; settings: Homo sapiens, SK-N-FI;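 also: cell viability assay measuring growth inhibition of human SK-N-FI cells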
Description: SANGER: Inhibition of human SK-N-FI cell growth in a cell viability assay.

[33] = tested on: MPP-89; type: functional, cell-based, Homo sapiens; settings: Homo sapiens, MPP-89;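 also: growth inhibition of human MPP-89 cells, read out with a cell viability assay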
Description: SANGER: Inhibition of human MPP-89 cell growth in a cell viability assay.

[34] = tested on: MFH-ino; type: functional, cell-based, Homo sapiens; settings: Homo sapiens, MFH-ino;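 also: growth inhibition of human MFH-ino cells, read out by a cell viability assay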
Description: SANGER: Inhibition of human MFH-ino cell growth in a cell viability assay.

[35] = tested on: OS-RC-2; type: functional, cell-based, Homo sapiens; settings: Homo sapiens, OS-RC-2;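 also: growth inhibition of human OS-RC-2 cells, measured by a cell viability assay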
Description: SANGER: Inhibition of human OS-RC-2 cell growth in a cell viability assay.

[36] = tested on: RS4-11; type: functional, cell-based, Homo sapiens; settings: Homo sapiens, RS4-11;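 also: growth inhibition of RS4-11 cells, read out by a cell viability assay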
Description: SANGER: Inhibition of human RS4-11 cell growth in a cell viability assay.

[37] = tested on: D-392MG; type: functional, cell-based, Homo sapiens; settings: Homo sapiens, D-392MG
[38] = tested on: MSTO-211H; type: functional, cell-based, Homo sapiens; settings: Homo sapiens, MSTO-211H
Description: SANGER: Inhibition of human MSTO-211H cell growth in a cell viability assay.

[39] = tested on: IST-MES1; type: functional, cell-based, Homo sapiens; settings: Homo sapiens, IST-MES1;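 also: growth inhibition of IST-MES1 cells, measured with a cell viability assay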
Description: SANGER: Inhibition of human IST-MES1 cell growth in a cell viability assay.

[40] = tested on: P30-OHK; type: functional, cell-based, Homo sapiens; settings: Homo sapiens, P30-OHK;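 also: growth inhibition of the P30-OHK cell line, read out with a cell viability assay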
Description: SANGER: Inhibition of human P30-OHK cell growth in a cell viability assay.

[41] = tested on: 8-MG-BA; type: functional, cell-based, Homo sapiens; settings: Homo sapiens, 8-MG-BA;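 also: growth inhibition of 8-MG-BA cells, read out with a cell viability assay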
Description: SANGER: Inhibition of human 8-MG-BA cell growth in a cell viability assay.

[42] = tested on: MZ1-PC; type: functional, cell-based, Homo sapiens; settings: Homo sapiens, MZ1-PC;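 also: cell viability assay measuring growth inhibition of human MZ1-PC cells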
Description: SANGER: Inhibition of human MZ1-PC cell growth in a cell viability assay.

[43] = tested on: C2BBe1; type: functional, cell-based, Homo sapiens; settings: Homo sapiens, C2BBe1;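 also: growth inhibition of C2BBe1 cells, read out through a viability assay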
Description: SANGER: Inhibition of human C2BBe1 cell growth in a cell viability assay.

[44] = tested on: EW-24; type: functional, cell-based, Homo sapiens; settings: Homo sapiens, EW-24;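 also: human EW-24 cancer cell line, growth inhibition read out via a cell viability assay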
Description: SANGER: Inhibition of human EW-24 cell growth in a cell viability assay.

[45] = tested on: no-10; type: functional, cell-based, Homo sapiens; settings: Homo sapiens;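 also: growth inhibition of no-10 cells, read out with a cell viability assay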
Description: SANGER: Inhibition of human no-10 cell growth in a cell viability assay.

[46] = tested on: BE-13; type: functional, cell-based, Homo sapiens; settings: Homo sapiens, BE-13;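 also: growth inhibition of human BE-13 cells, measured with a cell viability assay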
Description: SANGER: Inhibition of human BE-13 cell growth in a cell viability assay.

[47] = tested on: KMOE-2; type: functional, cell-based, Homo sapiens; settings: Homo sapiens, KMOE-2;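 also: growth inhibition of human KMOE-2 cells, read out with a cell viability assay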
Description: SANGER: Inhibition of human KMOE-2 cell growth in a cell viability assay.

[48] = tested on: HCC2157; type: functional, cell-based, Homo sapiens; settings: Homo sapiens, HCC2157;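 also: growth inhibition of the cancer cell line, read out as cell viability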
Description: SANGER: Inhibition of human HCC2157 cell growth in a cell viability assay.

Cc1cn(-c2cc(NC(=O)c3ccc(C)c(Nc4nccc(-c5cccnc5)n4)c3)cc(C(F)(F)F)c2)cn1 [NILOTINIB]
IC50 [1]: > 2 µM
IC50 [2]: > 2 µM
IC50 [3]: > 2 µM
IC50 [4]: > 2 µM
IC50 [5]: > 2 µM
IC50 [6]: > 2 µM
IC50 [7]: > 2 µM
IC50 [8]: > 2 µM
IC50 [9]: > 2 µM
IC50 [10]: > 2 µM
IC50 [11]: > 2 µM
IC50 [12]: > 2 µM
IC50 [13]: 0.00828 µM
IC50 [14]: > 2 µM
IC50 [15]: > 2 µM
IC50 [16]: > 2 µM
IC50 [17]: > 2 µM
IC50 [18]: > 2 µM
IC50 [19]: > 2 µM
IC50 [20]: > 2 µM
IC50 [21]: > 2 µM
IC50 [22]: 1.82 µM
IC50 [23]: > 2 µM
IC50 [24]: > 2 µM
IC50 [25]: 0.0049 µM
IC50 [26]: > 2 µM
IC50 [27]: > 2 µM
IC50 [28]: > 2 µM
IC50 [29]: > 2 µM
IC50 [30]: > 2 µM
IC50 [31]: > 2 µM
IC50 [32]: > 2 µM
IC50 [33]: > 2 µM
IC50 [34]: > 2 µM
IC50 [35]: > 2 µM
IC50 [36]: > 2 µM
IC50 [37]: > 2 µM
IC50 [38]: > 2 µM
IC50 [39]: > 2 µM
IC50 [40]: > 2 µM
IC50 [41]: > 2 µM
IC50 [42]: > 2 µM
IC50 [43]: > 2 µM
IC50 [44]: > 2 µM
IC50 [45]: > 2 µM
IC50 [46]: 1.27 µM
IC50 [47]: > 2 µM

Cn1cnc2c(F)c(Nc3ccc(Br)cc3Cl)c(C(=O)NOCCO)cc21 [SELUMETINIB]
IC50 [2]: > 4 µM
IC50 [3]: > 4 µM
IC50 [4]: 1.34 µM
IC50 [5]: > 4 µM
IC50 [6]: > 4 µM
IC50 [7]: > 4 µM
IC50 [8]: > 4 µM
IC50 [9]: > 4 µM
IC50 [10]: > 4 µM
IC50 [11]: > 4 µM
IC50 [12]: 0.032 µM
IC50 [13]: 1.63 µM
IC50 [14]: > 4 µM
IC50 [15]: > 4 µM
IC50 [16]: > 4 µM
IC50 [17]: > 4 µM
IC50 [18]: 2.08 µM
IC50 [19]: > 4 µM
IC50 [20]: > 4 µM
IC50 [21]: > 4 µM
IC50 [23]: > 4 µM
IC50 [24]: 1.84 µM
IC50 [25]: 0.456 µM
IC50 [48]: > 4 µM
IC50 [26]: 0.351 µM
IC50 [27]: > 4 µM
IC50 [28]: > 4 µM
IC50 [29]: > 4 µM
IC50 [30]: > 4 µM
IC50 [31]: > 4 µM
IC50 [32]: > 4 µM
IC50 [33]: > 4 µM
IC50 [35]: 2.4 µM
IC50 [36]: > 4 µM
IC50 [37]: > 4 µM
IC50 [38]: > 4 µM
IC50 [39]: > 4 µM
IC50 [40]: > 4 µM
IC50 [41]: > 4 µM
IC50 [42]: 3.32 µM
IC50 [43]: 0.273 µM
IC50 [45]: > 4 µM
IC50 [46]: > 4 µM

CO[C@H]1C[C@@H]2CC[C@@H](C)[C@@](O)(O2)C(=O)C(=O)N2CCCC[C@H]2C(=O)O[C@H]([C@H](C)C[C@@H]2CC[C@@H](OC(=O)C(C)(CO)CO)[C@H](OC)C2)CC(=O)[C@H](C)/C=C(\C)[C@@H](O)[C@@H](OC)C(=O)[C@H](C)C[C@H](C)/C=C/C=C/C=C/1C [TEMSIROLIMUS]
IC50 [1]: 0.058 µM
IC50 [2]: > 0.2 µM
IC50 [3]: > 0.2 µM
IC50 [4]: 0.00571 µM
IC50 [5]: > 0.2 µM
IC50 [6]: > 0.2 µM
IC50 [7]: > 0.2 µM
IC50 [8]: 0.00293 µM
IC50 [9]: 0.0193 µM
IC50 [10]: 0.175 µM
IC50 [11]: > 0.2 µM
IC50 [12]: 0.168 µM
IC50 [13]: 0.0882 µM
IC50 [14]: > 0.2 µM
IC50 [15]: > 0.2 µM
IC50 [16]: > 0.2 µM
IC50 [17]: > 0.2 µM
IC50 [18]: 0.0513 µM
IC50 [19]: 0.0156 µM
IC50 [20]: 0.119 µM
IC50 [21]: > 0.2 µM
IC50 [22]: > 0.2 µM
IC50 [23]: 0.0559 µM
IC50 [24]: 0.007 µM
IC50 [25]: 0.00403 µM
IC50 [26]: > 0.2 µM
IC50 [27]: 0.000444 µM
IC50 [28]: > 0.2 µM
IC50 [29]: > 0.2 µM
IC50 [30]: > 0.2 µM
IC50 [31]: 0.0059 µM
IC50 [32]: > 0.2 µM
IC50 [33]: > 0.2 µM
IC50 [34]: > 0.2 µM
IC50 [35]: 0.017 µM
IC50 [36]: 0.00845 µM
IC50 [37]: > 0.2 µM
IC50 [38]: 0.0601 µM
IC50 [39]: > 0.2 µM
IC50 [40]: > 0.2 µM
IC50 [41]: > 0.2 µM
IC50 [42]: > 0.2 µM
IC50 [43]: > 0.2 µM
IC50 [44]: > 0.2 µM
IC50 [45]: > 0.2 µM
IC50 [46]: 0.00491 µM
IC50 [47]: > 0.2 µM
